From PubChem BioAssay AID1996 come the findings set out here.

Values after ≈ are worked out from the molar mass of the structure shown. Bounds are passed on as bounds.

The conditions of this data set: buffer; pH 7.4; 200.0 µM.
In the case of `O=C(/N=C1\NC(=O)C(F)(C(F)(F)F)S1)NC1CCCCC1` (stereo not drawn), the solubility (kinetic) was greater than 49.1 µg/mL.
Then `Cc1ccc(C(=O)O/N=C(\N)c2ccccn2)cc1C`, with 2.6 µg/mL (≈ 9.65 µM); and `Cc1cc(C(=O)Nc2ccncc2)c(C)o1`, with greater than 32.4 µg/mL.
Then `CS(=O)(=O)Nc1ccc(C(=O)Nc2ccc3ccccc3c2)cc1`, with less than 0.4 µg/mL; and `CN(C)S(=O)(=O)c1ccc(NC=C(C#N)C#N)cc1`, with 26.3 µg/mL (≈ 95.2 µM).
Then `O=C(c1cccs1)N1CCN=C1SCc1cccc(F)c1`, with less than 0.3 µg/mL; and `CCN(C(=O)COC(=O)c1ccco1)c1cccc2ccccc12`, with 47.4 µg/mL (≈ 147 µM); and `Cc1ccc(NC(=O)COC(=O)c2ccc(NC(=O)CC#N)cc2)cc1S(=O)(=O)N1CCOCC1`, with 23.6 µg/mL (≈ 47.1 µM).
As to `O=[N+]([O-])c1cc(CN2CCC(O)CC2)ccc1Cl`, the solubility (kinetic) stood at 38.9 µg/mL (≈ 144 µM).
For `COC(=O)c1nc(-c2ccccc2)oc1N1CCOCC1` the value was greater than 43.2 µg/mL.
Then `Nc1ccc(C(=O)NCC2(c3ccccc3)CCCC2)cc1`, with 17.8 µg/mL (≈ 60.5 µM); and `O=C(NCc1ccccn1)Nc1ccccc1Cl`, with greater than 39.3 µg/mL.
For `Cc1ccc(C(=O)O)cc1NC(=O)C1=CSCCO1` the value was greater than 41.9 µg/mL; for `Nc1nc(NCC(=O)O)nc(NCc2ccccc2)c1[N+](=O)[O-]`, greater than 47.7 µg/mL; for `CC1C(c2ccccc2)N(C)C(c2ccccc2)CC1(O)c1ccc(F)cc1` (stereo not drawn), 5.7 µg/mL (≈ 15.2 µM).
`CC(=O)c1ccc(S(=O)(=O)N2CCCCC2C(=O)O)cc1` (stereo not drawn) registered a solubility (kinetic) of 45.9 µg/mL (≈ 147 µM).
Then `COc1cc(/C=C(\C#N)C(=O)N2CCCCC2)ccc1O`, with greater than 42.9 µg/mL; and `CCN(Cc1ccncc1)C(=O)C(CO)c1ccccc1` (stereo not drawn), with greater than 42.7 µg/mL.
For `COCCNc1oc(-c2ccccc2Cl)nc1S(=O)(=O)c1ccc(C)cc1` the value was 44.1 µg/mL (≈ 108 µM); for `CCOC(=O)C1CCN(C(=O)C(C)Sc2nnc3ccccn23)CC1` (stereo not drawn), greater than 54.4 µg/mL; for `CNS(=O)(=O)c1cccc(C(=O)OCC(=O)NC2CCCC(C)C2C)c1` (stereo not drawn), 12.7 µg/mL (≈ 33.2 µM).
For `CC(=O)NCCc1c[nH]c2ccc(OCc3ccccc3)cc12` the value was 42.4 µg/mL (≈ 137 µM); for `Cc1c(C)n(CCO)c2ncnc(Nc3ccc(F)cc3)c12`, greater than 45.1 µg/mL.
The compound `CCOc1ncccc1C(=O)OC(C)C(=O)NC1CCCCC1` (stereo not drawn) displayed a kinetic solubility greater than 48.1 µg/mL.
For `O=C(CN1CCCCCC1)Nc1cc([N+](=O)[O-])ccc1Cl` the value was 22.6 µg/mL (≈ 72.5 µM).
For `CN(Cc1ccccc1)C(=O)CN(C)S(=O)(=O)c1ccc(F)cc1` the value was greater than 52.6 µg/mL.
For `O=C(CN1CCN(c2ccc(Cl)cc2[N+](=O)[O-])CC1)N1CCOCC1`, the solubility (kinetic) was greater than 55.3 µg/mL.
For `O=[N+]([O-])c1ccc(Sc2ccc(F)cc2)nc1` the value was 0.7 µg/mL (≈ 2.8 µM); for `Cn1c(CNc2ccc(Br)cc2)nc2ccccc21`, 13 µg/mL (≈ 41.1 µM); for `CCN(CC(=O)Nc1ccc2c(c1)OCCO2)S(=O)(=O)c1ccc(F)cc1`, greater than 59.2 µg/mL.
The compound `Cc1ccc(Nc2nc(=O)c3cccnc3s2)c(Br)c1` gave a kinetic solubility of 2.4 µg/mL (≈ 6.89 µM).
For `Cn1cc(C=O)c2ccccc21` the value was greater than 23.9 µg/mL; for `O=C(Cc1ccsc1)NCC(=O)Nc1ccc(F)c(F)c1`, greater than 46.5 µg/mL; for `CCOc1ccccc1CNCCNCC(C)O.Cl` (stereo not drawn), greater than 48.8 µg/mL.
Then `CC(C)C(C)NC(=O)Cn1cnc2c(oc3ccccc32)c1=O` (stereo not drawn), with 17.3 µg/mL (≈ 55.2 µM); and `COc1ccc(NC(=O)CN2C(=O)NC3(CCCCCC3)C2=O)cc1Cl`, with 13.8 µg/mL (≈ 36.3 µM); and `CC(C)N1CCN(Cc2cc3ccccc3[nH]2)CC1CCO` (stereo not drawn), with greater than 45.2 µg/mL.
Then `Cc1nnc(NC(=O)CN2CC(C)OC(C)C2)s1` (stereo not drawn), with greater than 40.6 µg/mL.
In the case of `CCOc1ccc(C(=O)OCC(=O)NCC2CCCO2)cc1` (stereo not drawn), the kinetic solubility was greater than 46.1 µg/mL.
Then `CC(C)(C)c1ccc(NC(=O)c2c(F)cccc2Cl)cc1`, with 1.1 µg/mL (≈ 3.6 µM); and `Cc1cc(C)nc(Nc2nc3ccccc3s2)n1`, with less than 0.1 µg/mL.
`COc1cc2[nH]c(=S)nc(NCc3ccc(C)cc3)c2cc1OC` came in with a kinetic solubility of 3.8 µg/mL (≈ 11.1 µM).
For `O=C1CN(S(=O)(=O)c2cc(Cl)ccc2Cl)c2ccccc2N1`, the kinetic solubility is 37.8 µg/mL (≈ 106 µM).
For `O=[N+]([O-])c1cccnc1Oc1ccccc1F` the value was greater than 35.1 µg/mL; for `C/C(=N/NC(=O)C(C)n1nc(C)c([N+](=O)[O-])c1C)c1ccc(OCC(N)=O)cc1` (stereo not drawn), greater than 60.4 µg/mL.
Then `CCOC(=O)C1CCN(C(=S)NC2CC3C=CC2C3)CC1` (stereo not drawn), with greater than 46.3 µg/mL.
Then `O=C(NCC1COc2ccccc2O1)c1cccs1` (stereo not drawn), with 39.7 µg/mL (≈ 144 µM); and `Fc1cccc(CSc2nc3ncc(Cl)cc3[nH]2)c1`, with 2.6 µg/mL (≈ 8.85 µM); and `Cc1ccc(CN(C)c2ccc(S(=O)(=O)N3CCCC3)cn2)cc1`, with 12.5 µg/mL (≈ 36.2 µM).
As for `COc1ccc(NC(=O)C(Cc2ccccc2)n2cccc2)c(OC)c1` (stereo not drawn), the kinetic solubility turned out to be 12.9 µg/mL (≈ 36.8 µM).
For `COC(=O)c1sccc1NC(=O)Nc1ccccc1OC` the value was 40 µg/mL (≈ 131 µM).
For `CCC(=O)Nc1ccc2nc3c(=O)[nH]c(=S)[nH]c3nc2c1` the value was greater than 45.2 µg/mL; for `Cn1c(=O)c(C=Nc2ccccc2)c(O)c2ccccc21`, 11.2 µg/mL (≈ 40.2 µM).
Then `CC(C)(C)C(=O)CSc1nc(N)cc(=O)[nH]1`, with 33.1 µg/mL (≈ 137 µM).
Compound `COC(=O)c1cccc(NC(=O)c2ccc3c(c2)C(=O)N(C(C)(C)C)C3=O)c1` yielded a solubility (kinetic) of less than 0.4 µg/mL.
For `Cc1cc(=O)[nH]c(=O)n1Cc1ccccc1` the value was 19.2 µg/mL (≈ 88.8 µM); for `CN(CCc1ccccn1)C(=O)Nc1cccc(Cl)c1`, 38.6 µg/mL (≈ 133 µM).
Then `O=C(C=C1NCCN1)c1ccccc1`, with greater than 28.2 µg/mL; and `COc1ccc([N+](=O)[O-])cc1C(=O)C(=O)c1ccccc1`, with less than 0.6 µg/mL; and `CCOC(=O)c1ccc(Oc2cc(C)nc(Cl)n2)cc1`, with greater than 43.9 µg/mL.
Then `O=C(CCS(=O)(=O)c1ccc(F)cc1)N1CCOCC1`, with greater than 45.2 µg/mL.
For the compound `Cc1ccc(NC(=O)CN2C(=O)NC3(CCCc4ccccc43)C2=O)c(Cl)c1` (stereo not drawn), the kinetic solubility was determined as 47 µg/mL (≈ 118 µM).
Consider `O=C1NC(=Nc2ccccc2Cl)S/C1=C\c1cccc([N+](=O)[O-])c1`, for which the solubility (kinetic) came to 4.2 µg/mL (≈ 11.7 µM).
For `Cc1cc(C)cc(OCC(=O)O/N=C(\N)c2cccnc2)c1` the value was 38.3 µg/mL (≈ 128 µM).
For `COc1ccc(NC(=O)C2CCCN(C(=O)Nc3ccc(OC)cc3)C2)cc1` (stereo not drawn) the value was 7.5 µg/mL (≈ 19.6 µM).
For `O=C(Nc1ccccc1)Nc1ccccc1Br` the value was 2.1 µg/mL (≈ 7.21 µM).
In turn, `Cc1ccc(-n2c(N)c(Br)c(=O)[nH]c2=O)cc1C` returned a solubility (kinetic) greater than 46.5 µg/mL.
For `O=C(OCC(=O)N1CCOCC1)c1ccc(Cl)c(S(=O)(=O)N2CCc3ccccc32)c1` the value was 32.4 µg/mL (≈ 69.7 µM); for `O=C(c1cccc(S(=O)(=O)NCc2ccccc2)c1)N1CCCC1`, greater than 51.7 µg/mL; for `CCOc1ccc2oc(C(=O)Nc3nccs3)c(C)c2c1`, 2.2 µg/mL (≈ 7.28 µM).
Then `COc1cc2c(cc1OC)-c1cc(Nc3ccccc3C)nc(=O)n1CC2`, with 49.3 µg/mL (≈ 136 µM); and `COc1ccc(Cl)cc1NC(=S)N1CCN(S(C)(=O)=O)CC1`, with greater than 54.6 µg/mL; and `NC(=O)COC(=O)c1ccc(-c2ccc(O)cc2)cc1`, with 1.1 µg/mL (≈ 4.05 µM).
In turn, `O=C(COc1ccccc1Cl)NCCNC(=O)c1cccnc1` came in with a solubility (kinetic) greater than 50.1 µg/mL.
Compound `Cc1ccc(S(=O)(=O)N2CCC(C(=O)NCCCN3CCCC3=O)CC2)cc1` showed a kinetic solubility of 51.9 µg/mL (≈ 127 µM).
Then `O=C(CC12CC3CC(CC(Br)(C3)C1)C2)NC1CCCC1`, with 36.4 µg/mL (≈ 107 µM).
For `CN(Cc1cccs1)c1nc(-c2cccnc2)nc2ccccc12` the value was 3 µg/mL (≈ 9.02 µM); for `O=C(COC(=O)C1COc2ccccc2O1)NC1CCCCC1` (stereo not drawn), greater than 47.9 µg/mL.
As to `O=S(=O)(O)c1cccnc1SCc1ccccc1`, the solubility (kinetic) was found to be 41 µg/mL (≈ 146 µM).
Take `O=C1NC(c2ccccc2Br)=N/C1=C\c1ccco1`: the solubility (kinetic) turned out to be 13.6 µg/mL (≈ 42.9 µM).
Compound `Cc1nn(CC(=O)N2CCc3ccccc3C2)c(C)c1[N+](=O)[O-]` gave a solubility (kinetic) greater than 47.2 µg/mL.
The compound `CN1CCN(c2ccc(Cl)cc2NC(=O)/C=C/c2ccc(F)cc2)CC1` yielded a solubility (kinetic) of 38.4 µg/mL (≈ 103 µM).
Then `O=C(NC1CCCC1)c1cc(-c2ccccc2)on1`, with 4 µg/mL (≈ 15.6 µM); and `NC1=NC(=O)C(Cc2ccc(Br)cc2)S1` (stereo not drawn), with 36.5 µg/mL (≈ 128 µM).
`Cc1cccc(NC(=O)Cn2cc(C(=O)C3CC3)c3ccccc32)c1C`: the solubility (kinetic) was determined as 0.6 µg/mL (≈ 1.73 µM).
Then `O=C(Cc1ccccc1[N+](=O)[O-])NCCc1ccc(F)cc1`, with 44.6 µg/mL (≈ 148 µM).
Then `Cc1ccnc(Nc2nc(-c3ccc(O)cc3)cs2)c1`, with 3.9 µg/mL (≈ 13.8 µM); and `O=C(COc1ccccc1)Nc1ccc2[nH]c(=O)[nH]c2c1`, with 36.9 µg/mL (≈ 130 µM).
Then `O=C(CCc1ccccc1)Nc1cc2c3c(c1)CCC(=O)N3CCC2`, with 40.3 µg/mL (≈ 121 µM); and `COc1ccccc1-n1cc(-c2ccccc2)c2c(=S)nc[nH]c21`, with 10.6 µg/mL (≈ 31.8 µM); and `COC(=O)c1ccc(N/C=C/C(=O)c2ccccc2)cc1`, with 1.5 µg/mL (≈ 5.33 µM).
For the compound `Cc1ncc([N+](=O)[O-])n1CC(=O)Nc1cc(Cl)ccc1Cl`, the kinetic solubility stood at 0.9 µg/mL (≈ 2.73 µM).
Then `Cc1ccccc1-n1nc2c(c1NC(=O)CC(C)C)CS(=O)C2` (stereo not drawn), with greater than 49.7 µg/mL; and `OCCC1CN(CCCc2ccccc2)CCN1Cc1ccccc1` (stereo not drawn), with greater than 50.8 µg/mL; and `Nc1cc(N2CCCC2)ccc1[N+](=O)[O-]`, with 2.8 µg/mL (≈ 13.5 µM).
For `O=C(NCCO)/C(=C\c1ccco1)NC(=O)c1ccco1` the value was 35 µg/mL (≈ 121 µM); for `CCOC(=O)C1CCN(Cc2ccc(-c3ccccc3)cc2)CC1`, 25.6 µg/mL (≈ 79.2 µM); for `CC1(C)Cc2nc3scc(NC(=O)c4ccccc4)c3cc2CO1`, 5.9 µg/mL (≈ 17.4 µM).
Then `CCC1(CC)NC(=O)N(CC(=O)Nc2ccc(C)cc2C)C1=O`, with greater than 47.6 µg/mL.
For `CCc1c(C)c(C#N)c2[nH]c3ccccc3n2c1=S`, the kinetic solubility is 6.6 µg/mL (≈ 24.7 µM).
Then `Cc1cc(NC(=O)c2cccc([N+](=O)[O-])c2)no1`, with less than 0.2 µg/mL.
For `O=C(NC1CC1)C1CC(=O)N(c2ccccc2)C1` (stereo not drawn) the value was greater than 36.6 µg/mL; for `COc1ccc(C(=O)NCCNC(=O)c2cnccn2)cc1`, 37.1 µg/mL (≈ 124 µM).

As usually defined, the kinetic solubility is solubility judged after dilution from a stock solution rather than from solid.
